In the supplement of paper PMC10307832:

How the values were obtained:
Experiment in all cases: relative viability (nuclei count vs DMSO), 5 days (fraction); higher = more cells survive
[1] = compound: C[C@@]1(C(=O)Nc2ccc(F)nc2)CCCN1c1nc(Nc2cc(C3CC3)n[nH]2)c2cccn2n1 + CS(=O)(=O)CCNCc1ccc(-c2ccc3ncnc(Nc4ccc(OCc5cccc(F)c5)c(Cl)c4)c3c2)o1 [Lapatinib] (partner 2 µM)
Outline: (§1)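 A single step with final 0.05% Triton X-100, 1% formaldehyde and 1 ug/ml Hoechst fixed the cells and stained nuclei 5 days after treatment. Lung cancer cell lines in 1536-well plates had been treated by pin tool the day after seeding with one drug alone or a fixed anchor-drug dose plus five library-drug doses (not always all listed) in √10 steps, and nuclei were counted on 4× images. Relative viability is the ratio of nuclei in treated wells to nuclei in vehicle wells, taken as the median of duplicate plates.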

Motesanib + OSI-027 = compound: CC1(C)CNc2cc(NC(=O)c3cccnc3NCc3ccncc3)ccc21 [Motesanib] + COc1cccc2cc(-c3nc([C@H]4CC[C@H](C(=O)O)CC4)n4ncnc(N)c34)[nH]c12 [OSI-027] (partner 0.5 µM)
Outline: as §1

[2] = compound: C[C@@]1(C(=O)Nc2ccc(F)nc2)CCCN1c1nc(Nc2cc(C3CC3)n[nH]2)c2cccn2n1 + NC(=O)Nc1cc(-c2cccc(F)c2)sc1C(=O)N[C@H]1CCCNC1 [AZD7762] (partner 0.2 µM)
Outline: as §1

[3] = compound: C[C@@]1(C(=O)Nc2ccc(F)nc2)CCCN1c1nc(Nc2cc(C3CC3)n[nH]2)c2cccn2n1 + CCNC(=O)c1noc(-c2cc(C(C)C)c(O)cc2O)c1-c1ccc(CN2CCOCC2)cc1 [Luminespib] (partner 0.01 µM)
Outline: as §1

Cell Line	relative viability ([1]; first compound 0.04 µM)	relative viability ([1]; first compound 0.1265 µM)	relative viability ([1]; first compound 0.4 µM)	relative viability ([1]; first compound 1.265 µM)	relative viability (Motesanib + OSI-027; first compound 0.01 µM)	relative viability (Motesanib + OSI-027; first compound 0.03162 µM)	relative viability (Motesanib + OSI-027; first compound 0.1 µM)	relative viability (Motesanib + OSI-027; first compound 0.3162 µM)	relative viability (Motesanib + OSI-027; first compound 1 µM)	relative viability ([2]; first compound 0.04 µM)	relative viability ([2]; first compound 0.1265 µM)	relative viability ([2]; first compound 0.4 µM)	relative viability ([2]; first compound 1.265 µM)	relative viability ([3]; first compound 0.04 µM)	relative viability ([3]; first compound 0.1265 µM)	relative viability ([3]; first compound 0.4 µM)	relative viability ([3]; first compound 1.265 µM)
201T	1.05	0.91	0.717	0.862	0.683	0.726	0.779	0.506	0.69	0.623	0.575	0.473	0.597	0.878	0.84	0.799	1.02
A549	0.648	0.477	0.348	0.103													
A-427	1.04	0.934	1.09	1.08	0.4	0.459	0.485	0.545	0.5	0.64	0.642	0.647	0.427	1.03	0.957	0.639	0.881
ABC-1	1.14	1.59	0.752	0.633	0.438	0.521	0.407	0.332	0.604	0.833	0.595	0.643	0.593	0.63	0.519	0.244	0.308
BEN	0.712	0.729	0.765	0.698	0.281	0.277	0.272	0.291	0.31	0.809	0.645	0.67	0.676	0.381	0.487	0.641	0.325
CAL-12T	0.8	0.442	0.564	0.555	0.628	0.731	0.685	0.555	0.677	0.659	0.765	0.78	0.677	0.446	0.391	0.487	0.116
COR-L23	1.12	0.957	0.994	0.423	0.788	0.721	0.874	0.753	0.806					0.714	0.65	0.449	0.45
COR-L 105	0.344	0.324	0.28	0.233	0.768	0.7	0.717	0.689	0.626					0.672	0.62	0.624	0.685
Calu-6	1.14	1.08	0.95	0.693													
ChaGo-K-1					0.637	0.474	0.495	0.597	0.563	0.845	0.815	0.862	0.841	0.519	0.503	0.455	0.613
EBC-1	0.208	0.19	0.239	0.205													
EKVX	0.184	0.162	0.137	0.133	0.684	0.655	0.788	0.732	0.674	0.671	0.505	0.489	0.578	0.804	0.67	0.683	0.935
EMC-BAC-2	0.856	0.671	0.572	0.622	0.398	0.341	0.36	0.412	0.378	1.14	0.644	0.679	0.54	0.863	0.941	0.713	0.857
EPLC-272H	0.885	0.668	0.601	0.72	0.236	0.311		0.263	0.244	0.215	0.187	0.212	0.164	0.214		0.187	0.272
H3255	0.243	0.291	0.226	0.155	0.608	0.601	0.603	0.558	0.635	0.96	0.931	0.811	0.855	1.02	0.982	0.89	0.811
HARA	0.409	0.466	0.248	0.244	0.439	0.724	0.527	0.554	0.557	0.42	0.227	0.73	0.198	0.72	0.73	0.585	0.881
HCC-15	0.839	0.743	0.746	0.739	0.693	0.65	0.64	0.817	0.64	1.07	1.18	1.25	1.13	0.481	0.364	0.55	0.417
HCC-44	0.894	0.794	0.647	0.688	0.552	0.431	0.633	0.633	0.544	1.02	0.954	0.989	0.979	0.829	0.744	0.623	0.732
HCC-78	0.826	0.476	0.186	0.186	0.343	0.348	0.405	0.345	0.297	0.593	0.419	0.418	0.4				
HCC-366	1.22	0.946	1.07	0.883	0.964	0.959	0.863	0.881	1.03	0.356	0.31	0.293	0.152				
HCC-827	0.224	0.214	0.17	0.175	0.669	0.809	0.749	0.761	0.755	0.273	0.19	0.241	0.191	0.747	0.388	0.529	1
HOP-62	0.978	0.907	1.05	1.04	0.843	0.912	0.839	0.92	0.815	0.812	0.541	0.427	0.547	0.999	0.789	0.906	1.01
IA-LM	0.702	0.935	0.647	0.601													
LC-2-ad	0.904	0.759	0.745	0.32	0.927	0.948	0.872	0.803	0.716	0.657	0.586	0.543	0.391	0.97	0.859	0.719	0.599

Cell Line	relative viability ([1]; first compound 0.04 µM)	relative viability ([1]; first compound 0.1265 µM)	relative viability ([1]; first compound 0.4 µM)	relative viability ([1]; first compound 1.265 µM)	relative viability (Motesanib + OSI-027; first compound 0.01 µM)	relative viability (Motesanib + OSI-027; first compound 0.03162 µM)	relative viability (Motesanib + OSI-027; first compound 0.1 µM)	relative viability (Motesanib + OSI-027; first compound 0.3162 µM)	relative viability (Motesanib + OSI-027; first compound 1 µM)	relative viability ([2]; first compound 0.04 µM)	relative viability ([2]; first compound 0.1265 µM)	relative viability ([2]; first compound 0.4 µM)	relative viability ([2]; first compound 1.265 µM)	relative viability ([3]; first compound 0.04 µM)	relative viability ([3]; first compound 0.1265 µM)	relative viability ([3]; first compound 0.4 µM)	relative viability ([3]; first compound 1.265 µM)
LCLC-97TM1	0.572	0.301	0.172	0.163	0.519	0.56	0.465	0.58	0.537	0.284	0.234	0.134	0.128	0.342	0.272	0.23	0.378
LCLC-103H					0.471	0.467	0.465	0.429	0.466	0.7	0.748	0.6	0.691	0.92	0.766	0.733	0.927
LK-2		1.16	0.584	0.713	0.225	0.195	0.168	0.218	0.256	0.179	0.203		0.179	0.159	0.204	0.174	0.169
LOU-NH91	0.671	0.567	0.601	0.564	0.717	0.764	0.721	0.722	0.743	0.683	0.723	0.626	0.642	0.335	0.353	0.305	0.335
LU99A	0.808	0.545	0.48	0.342	0.287	0.261	0.301	0.307	0.322	0.294	0.243	0.223	0.143	0.244	0.246	0.197	0.181
NCI-H441					0.557	0.619	0.608	0.577	0.547	1.07	0.651	0.528	0.856	0.258	0.175	0.221	0.267
NCI-H520	0.98	0.841	0.826	0.875	0.29	0.226	0.231	0.24	0.253					0.214	0.242	0.267	0.211
NCI-H522					0.741	0.585	0.417	0.659	0.732	0.678	0.539	0.791	0.821	1.04	1.02	1.04	0.974
NCI-H661	0.492	0.839	0.32	0.389	0.73	0.741	0.848	0.749	0.576					0.973	1.06	1.05	1.02
NCI-H1299	1.01	1.03	0.964	0.967													
NCI-H1563	1.1	0.921	0.755	0.723	0.754	0.799	0.797	0.752	0.704					0.545	0.506	0.547	0.528
NCI-H1648					0.275	0.283	0.268	0.275	0.295	0.671	0.608	0.586	0.676				
NCI-H1650	0.894	0.679	0.656	0.402	0.747	0.688	0.725	0.562	0.586					0.215	0.194	0.199	0.181
NCI-H1703	0.996	0.867	0.898							0.145	0.111	0.13	0.12				
NCI-H2009	1.04	1.02	0.856	0.607	0.646	0.689	0.713	0.593	0.623					1.11	1.08	1.01	1.07
NCI-H2023	0.722	0.542	0.259	0.236	0.453	0.374	0.373	0.404	0.429					0.58	0.336	0.37	0.192
NCI-H2228	1.18	0.721	0.908	0.578	0.572	0.455	0.489	0.689	0.572					0.121	0.121	0.15	0.116
NCI-H2342					0.555	0.654	0.672	0.505	0.637	0.475	0.375	0.404	0.323	0.63	0.606	0.505	0.499
SK-LU-1	0.821	0.861	0.598	0.577	0.35	0.36	0.401	0.41	0.394					0.208	0.191	0.184	0.172
SK-MES-1	0.477	0.438	0.364	0.448	0.611	0.59	0.661	0.648	0.564					0.666	0.664	0.763	0.609
SW 900					0.65	0.515	0.651	0.61	0.656	0.541	0.688	0.5	0.561	0.18	0.198	0.188	0.155
SW 1573	1.04	0.902	0.729	1	0.561	0.583	0.549	0.736	0.709					0.224	0.185	0.182	0.143
UMC-11	1.02	1.02	0.826	0.805	0.461	0.466	0.38	0.503	0.51					0.94	1.01	0.968	0.726
